Assay results from patent US7612113B2, “Hydroxy tetrahydro-naphthalenylurea derivatives” (Xention Limited, priority 2002, dated 2009).
Like-named read-outs stand apart in the source and are kept apart here.

Tests used:
human VR1 = target: T1, human VR1 (Homo sapiens, UniProt Q8NER1); assay: capsaicin-induced Ca2+ influx in the human VR1-transfected CHO cell line (Assay 1); assay type: cell-based; details: 10 nM capsaicin, human VR1-CHOluc9aeq cells
T1 construct: expressed in transfected cells
Source text: [Measurement of capsaicin-induced Ca^2+ influx in the human VR1-transfected CHO cell line] (Assay 1)
• (1) Establishment of the Human VR1-CHOluc9aeq Cell Line • Human vanilloid receptor (hVR1) cDNA was cloned from libraries of axotomized dorsal root ganglia (WO 00/29577). The cloned hVR1 cDNA was constructed with pcDNA3 vector and transfected into a CHOluc9aeq cell line. The cell line contains aequorin and CRE-luciferase reporter genes as read-out signals. The transfectants were cloned by limiting dilution in selection medium (DMEM/F12 medium (Gibco BRL) supplemented with 10% FCS, 1.4 mM Sodium pyruvate, 20 mM HEPES, 0.15% Sodium bicarbonate, 100 U/ml penicillin, 100 μg/ml streptomycin, 2 mM glutamine, non-essential amino acids and 2 mg/ml G418). Ca^2+ influx was examined in the capsaicin-stimulated clones. A high responder clone was selected and used for further experiments in the project. The human VR1-CHOluc9aeq cells were maintained in the selection medium and passaged every 3-4 days at 1-2.5×10^5 cells/flask ([…]). • (2) Measurement of Ca^2+ Influx Using FDSS-3000 • Human VR1-CHOluc9aeq cells were suspended in a culture medium which is the same as the selection medium except for G418 and seeded at a density of 1,000 cells per well into 384-well plates (black walled clear-base/Nalge Nunc International). Following the culture for 48 hrs the medium was changed to 2 μM Fluo-3 AM (Molecular Probes) and 0.02% Puronic F-127 in assay buffer (Hank's balanced salt solution (HBSS), 17 mM HEPES (pH7.4), 1 mM Probenecid, 0.1% BSA) and the cells were incubated for 60 min at. 25° C. After washing twice with assay buffer the cells were incubated with a test compound or vehicle for 20 min at 25° C. Mobilization of cytoplasmic Ca^2+ was measured by FDSS-3000 (λex=488 nm, λem=540 nm/Hamamatsu Photonics) for 60 sec after the stimulation with 10 nM capsaicin. Integral R was calculated and compared with controls. [Measurement of the Capsaicin-Induced Ca^2+ Influx in Primary Cultured Rat Dorsal Root Ganglia Neurons] (Assay 2) • (1) Preparation of Rat Dorsal Root Ganglia Neurons • New born Wister rats (5-11 days) were sacrificed and dorsal root ganglia (DRG) was removed. DRG was incubated with 0.1% trypsin (Gibco BRL) in PBS(−) (Gibco BRL) for 30 min at 37° C., then a half volume of fetal calf serum (FCS) was added and the cells were spun down. The DRG neuron cells were resuspended in Ham F12/5% FCS/5% horse serum (Gibco BRL) and dispersed by repeated pipetting and passing through 70 μm mesh Falcon). The culture plate was incubated for 3 hours at 37° C. to remove contaminating Schwann cells. Non-adherent cells were recovered and further cultured in laminin-coated 384 well plates (Nunc) at 1×10^4 cells/50 μl/well for 2 days in the presence of 50 ng/ml recombinant rat NGF (Sigma) and 50 μM 5-fluorodeoxyuridine (Sigma). • (2) Ca^2+ Mobilization Assay • DRG neuron cells were washed twice with HBSS supplemented with 17 mM HEPES (pH 7.4) and 0.1% BSA. After incubating with 2 μM fluo-3AM (Molecular Probe), 0.02% PF127 (Gibco BRL) and 1 mM probenecid (Sigma) for 40 min at 37° C., cells were washed 3 times. The cells were incubated with VR1 antagonists or vehicle (dimethylsulphoxide) and then with 1 μM capsaicin in FDSS-6000 (λex=480 nm, λem=520 nm/Hamamatsu Photonics). The fluorescence changes at 480 nm were monitored for 2.5 min. Integral R was calculated and compared with controls. [Organ Bath Assay to Measure the Capsaicin-Induced Bladder Contraction] (Assay 3)
The data corresponds to the compounds as yielded by solid phase synthesis and thus to levels of purity of about 40 to 90%. For practical reasons, the compounds are grouped in four classes of activity as follows: IC50=A(<or=)0.1 μM<B(<or=)0.5 μM<C(<or=)1 μM<D

[1] = Table 1, read-out: activity class
[2] = read-out: In vitro activity class
[3] = Table 3, read-out: activity class

T1 sequence (Q8NER1 whole entry): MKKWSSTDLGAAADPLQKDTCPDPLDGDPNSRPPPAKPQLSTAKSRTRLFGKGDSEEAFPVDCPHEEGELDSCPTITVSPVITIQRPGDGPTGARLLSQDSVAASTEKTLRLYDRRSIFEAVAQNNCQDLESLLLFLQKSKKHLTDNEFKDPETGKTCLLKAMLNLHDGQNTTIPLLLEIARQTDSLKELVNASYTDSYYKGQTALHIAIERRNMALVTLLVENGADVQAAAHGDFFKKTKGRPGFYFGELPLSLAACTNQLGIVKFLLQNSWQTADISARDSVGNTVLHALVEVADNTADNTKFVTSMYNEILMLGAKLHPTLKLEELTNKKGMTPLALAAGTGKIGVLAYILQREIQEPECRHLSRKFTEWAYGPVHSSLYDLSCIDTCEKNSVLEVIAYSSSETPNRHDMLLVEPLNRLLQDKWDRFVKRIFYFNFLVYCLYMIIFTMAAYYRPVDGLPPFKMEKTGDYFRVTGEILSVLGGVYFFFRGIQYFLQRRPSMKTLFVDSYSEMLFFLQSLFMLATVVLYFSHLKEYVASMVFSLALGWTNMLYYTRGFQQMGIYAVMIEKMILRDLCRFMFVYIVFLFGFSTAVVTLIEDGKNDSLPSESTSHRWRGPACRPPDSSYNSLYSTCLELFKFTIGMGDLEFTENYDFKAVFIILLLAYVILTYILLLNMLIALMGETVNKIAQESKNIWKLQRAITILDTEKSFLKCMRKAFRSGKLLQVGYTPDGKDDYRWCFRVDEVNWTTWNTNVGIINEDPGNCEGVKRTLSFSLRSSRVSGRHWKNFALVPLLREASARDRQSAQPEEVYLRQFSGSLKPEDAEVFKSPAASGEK

Row | Compound | melting point [°C] | IC50 (human VR1; [1]) [nM] | IC50 (human VR1; [2]) [nM] | IC50 (human VR1; [3]) [nM]
1 | O=C(Nc1ccc(Cl)c(C(F)(F)F)c1)Nc1cccc2c1CC(O)CC2 (centres unmarked) [Example 1-1, N-[4-chloro-3-(trifluoromethyl)phenyl]-N′-(7-hydroxy-5,6,7,8-tetrahydro-1-naphthalenyl)urea] | 227 to 228 |  |  | 
2 | O=C(Nc1ccccc1Cl)Nc1cccc2c1CC(O)CC2 (centres unmarked) [Example 2-2] | 197 to 199 | 100 to 500 |  | 
3 | O=C(Nc1cccc(Cl)c1)Nc1cccc2c1CC(O)CC2 (centres unmarked) [Example 2-3] | 216 to 218 | < 100 |  | 
4 | O=C(Nc1ccc(Cl)cc1)Nc1cccc2c1CC(O)CC2 (centres unmarked) [Example 2-4] | 229 to 231 | < 100 |  | 
5 | COc1cccc(NC(=O)Nc2cccc3c2CC(O)CC3)c1 (centres unmarked) [Example 2-5] | 187 to 189 | 100 to 500 |  | 
6 | COc1ccc(NC(=O)Nc2cccc3c2CC(O)CC3)cc1 (centres unmarked) [Example 2-6] | 213 to 215 | > 1000 |  | 
7 | O=C(Nc1ccccc1C(F)(F)F)Nc1cccc2c1CC(O)CC2 (centres unmarked) [Example 2-7] | 217 to 219 | 500 to 1000 |  | 
8 | O=C(Nc1cccc(C(F)(F)F)c1)Nc1cccc2c1CC(O)CC2 (centres unmarked) [Example 2-8] | 227 to 228 | < 100 |  | 
9 | O=C(Nc1ccc(C(F)(F)F)cc1)Nc1cccc2c1CC(O)CC2 (centres unmarked) [Example 2-9] | 222 to 224 | < 100 |  | 
10 | CCOC(=O)c1ccccc1NC(=O)Nc1cccc2c1CC(O)CC2 (centres unmarked) [Example 2-10] | 178 to 180 | > 1000 |  | 
11 | CCOC(=O)c1cccc(NC(=O)Nc2cccc3c2CC(O)CC3)c1 (centres unmarked) [Example 2-11] | 176 to 178 | < 100 |  | 
12 | CCOC(=O)c1ccc(NC(=O)Nc2cccc3c2CC(O)CC3)cc1 (centres unmarked) [Example 2-12] | 204 to 206 | < 100 |  | 
13 | O=C(Nc1cccc2c1CC(O)CC2)Nc1cccc2ccccc12 (centres unmarked) [Example 2-13] | 250 to 252 | < 100 |  | 
14 | O=C(Nc1ccc2ccccc2c1)Nc1cccc2c1CC(O)CC2 (centres unmarked) [Example 2-14] | 212 to 214 | < 100 |  | 
15 | O=C(Nc1ccc(F)cc1)Nc1cccc2c1CC(O)CC2 (centres unmarked) [Example 2-15] | 214 to 216 | 100 to 500 |  | 
16 | O=C(Nc1ccc(Br)cc1)Nc1cccc2c1CC(O)CC2 (centres unmarked) [Example 2-16] | 237 to 239 | < 100 |  | 
17 | O=C(Nc1ccc(Cl)c(Cl)c1)Nc1cccc2c1CC(O)CC2 (centres unmarked) [Example 2-17] | 234 to 235 | < 100 |  | 
18 | Cc1cccc(NC(=O)Nc2cccc3c2CC(O)CC3)c1 (centres unmarked) [Example 2-18] | 198 to 200 | 100 to 500 |  | 
19 | CC(C)c1ccc(NC(=O)Nc2cccc3c2CC(O)CC3)cc1 (centres unmarked) [Example 2-19] | 186 to 188 | < 100 |  | 
20 | O=C(Nc1ccc(Oc2ccccc2)cc1)Nc1cccc2c1CC(O)CC2 (centres unmarked) [Example 2-20] | 188 to 190 | < 100 |  | 
21 | CN(C)c1ccc(NC(=O)Nc2cccc3c2CC(O)CC3)cc1 (centres unmarked) [Example 2-21] | 206 to 207 | > 1000 |  | 
22 | O=C(NCc1ccccc1)Nc1cccc2c1CC(O)CC2 (centres unmarked) [Example 2-22] | 198 to 200 | 100 to 500 |  | 
23 | Cc1ccccc1CNC(=O)Nc1cccc2c1CC(O)CC2 (centres unmarked) [Example 2-23] | 224 to 226 | 100 to 500 |  | 
24 | Cc1cccc(CNC(=O)Nc2cccc3c2CC(O)CC3)c1 (centres unmarked) [Example 2-24] | 194 to 196 | 100 to 500 |  | 
25 | Cc1ccc(CNC(=O)Nc2cccc3c2CC(O)CC3)cc1 (centres unmarked) [Example 2-26] | 230 to 232 | < 100 |  | 
26 | O=C(NCc1ccccc1F)Nc1cccc2c1CC(O)CC2 (centres unmarked) [Example 2-27] | 184 to 187 | 100 to 500 |  | 

Row | Compound | melting point [°C] | IC50 (human VR1; [1]) [nM] | IC50 (human VR1; [2]) [nM] | IC50 (human VR1; [3]) [nM]
27 | O=C(NCc1cccc(F)c1)Nc1cccc2c1CC(O)CC2 (centres unmarked) [Example 2-28] | 193 to 194 | 100 to 500 |  | 
28 | O=C(NCc1ccc(F)cc1)Nc1cccc2c1CC(O)CC2 (centres unmarked) [Example 2-29] | 218 to 221 | < 100 |  | 
29 | O=C(NCc1ccccc1Cl)Nc1cccc2c1CC(O)CC2 (centres unmarked) [Example 2-30] | 213 to 215 | 100 to 500 |  | 
30 | COc1ccc(CNC(=O)Nc2cccc3c2CC(O)CC3)cc1 (centres unmarked) [Example 2-31] | 209 to 211 | 100 to 500 |  | 
31 | O=C(NCCc1ccccc1)Nc1cccc2c1CC(O)CC2 (centres unmarked) [Example 2-32] | 161 to 163 | 500 to 1000 |  | 
32 | CCNC(=O)Nc1cccc2c1CC(O)CC2 (centres unmarked) [Example 2-33] | 216 to 217 | > 1000 |  | 
33 | O=C(Nc1ccccc1)Nc1cccc2c1CC(O)CC2 (centres unmarked) [Example 2-34] | 198 to 199 | 500 to 1000 |  | 
34 | O=C(Nc1ccc(Cl)c(C(F)(F)F)c1)Nc1ccc(Br)c2c1CC(O)CC2 (centres unmarked) [Example 2-38] | 234 to 235 | < 100 |  | 
35 | Cc1ccc(NC(=O)Nc2ccc(Cl)c(C(F)(F)F)c2)c2c1CCC(O)C2 (centres unmarked) [Example 2-39] | 219 to 220 | < 100 |  | 
36 | CN(C(=O)Nc1ccc(Cl)c(C(F)(F)F)c1)c1cccc2c1CC(O)CC2 (centres unmarked) [Example 2-40] | 136 to 137 | 100 to 500 |  | 
37 | CC1(O)CCc2cccc(NC(=O)Nc3ccc(Cl)c(C(F)(F)F)c3)c2C1 (centres unmarked) [Example 2-41] | 213 | 100 to 500 |  | 
38 | O=C(NCc1ccc(C(F)(F)F)cc1)Nc1cccc2c1C[C@H](O)CC2 [Example 4-4, N-{(R)-7-hydroxy-5,6,7,8-tetrahydro-naphthalen-1-yl}-N′-(4-trifluoromethyl-benzyl)-urea] | 204.3 |  | < 100 | 
39 | O=C(Nc1ccc(OC(F)(F)F)cc1)Nc1cccc2c1CC(O)CC2 (centres unmarked) [Example 5-1, N-(7-hydroxy-5,6,7,8-tetrahydro-naphthalen-1-yl)-N′-(4-trifluoromethoxy-phenyl)-urea] | 198 to 200 |  | < 100 | 
40 | O=C(Nc1cccc(F)c1)Nc1cccc2c1CC(O)CC2 (centres unmarked) [Example 5-3] | 204 to 205 |  |  | 100 to 500
41 | O=C(Nc1ccccc1Br)Nc1cccc2c1CC(O)CC2 (centres unmarked) [Example 5-4] | 196 to 197 |  |  | 100 to 500
42 | CCOc1ccc(NC(=O)Nc2cccc3c2CC(O)CC3)cc1 (centres unmarked) [Example 5-14] |  |  |  | < 100
43 | COc1ccc(NC(=O)Nc2cccc3c2CC(O)CC3)cc1O (centres unmarked) [Example 5-15] |  |  |  | 500 to 1000
44 | CSc1ccc(NC(=O)Nc2cccc3c2CC(O)CC3)cc1 (centres unmarked) [Example 5-16] |  |  |  | 100 to 500
45 | COc1ccc(NC(=O)Nc2cccc3c2CC(O)CC3)cc1F (centres unmarked) [Example 5-17] |  |  |  | < 100
46 | COc1ccc(NC(=O)Nc2cccc3c2CC(O)CC3)cc1OC (centres unmarked) [Example 5-18] |  |  |  | 100 to 500
47 | COc1ccc(NC(=O)Nc2cccc3c2CC(O)CC3)cc1Cl (centres unmarked) [Example 5-19] |  |  |  | < 100
48 | O=C(Nc1ccc(O)cc1)Nc1cccc2c1CC(O)CC2 (centres unmarked) [Example 5-20] |  |  |  | 500 to 1000
49 | Cc1cc(C)cc(NC(=O)Nc2cccc3c2CC(O)CC3)c1 (centres unmarked) [Example 5-21] |  |  |  | < 100
50 | Cc1ccc(NC(=O)Nc2cccc3c2CC(O)CC3)cc1C (centres unmarked) [Example 5-22] |  |  |  | < 100
51 | CCc1cccc(NC(=O)Nc2cccc3c2CC(O)CC3)c1 (centres unmarked) [Example 5-23] |  |  |  | < 100
52 | Cc1cc(NC(=O)Nc2cccc3c2CC(O)CC3)ccc1F (centres unmarked) [Example 5-24] |  |  |  | < 100
